How the values were obtained:
[1] = system: Japanese medaka (Oryzias latipes); assay: Fish short-term reproduction assay (FSTRA, OECD TG229), 21-day flow-through exposure; details: for Fertility rate (%) / Mortality (%) Female / Mortality (%) Male / Number of fertilized eggs / Number of total eggs / SSC Female / SSC Male / VTG (ng/mg of liver) Female / VTG (ng/mg of liver) Male: 21 days; for GSI Female / GSI Male / HSI Female / HSI Male / Length Female / Length Male / Weight Female / Weight Male: at completion of exposure
How it was run: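 Run to OECD TG229: mature NIES-R medaka pairs (3♂/3♀ per vessel, 4 vessels per treatment plus dilution water control) were dosed by continuous flow-through for 21 days. Test concentrations were spaced 2- to 5-fold. Daily spawned eggs were counted under the microscope for fertilized versus unfertilized.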

[2] = system: fathead minnow; set-up: method as in Panter et al. (2004); details: 21-day exposure; ref Panter et al. (2004); cited from earlier work
[3] = target: medaka ARβ (mARβ) (Oryzias latipes, UniProt D1MV73); assay: Medaka ARβ reporter gene assay (RGA), antagonist assay with 50 nM 11KT, HepG2 cells; type: cell-based, Japanese medaka (Oryzias latipes); details: 50 nM 11KT-induced mARβ activity
Sequence of medaka ARβ (mARβ) (D1MV73 entry or part of it): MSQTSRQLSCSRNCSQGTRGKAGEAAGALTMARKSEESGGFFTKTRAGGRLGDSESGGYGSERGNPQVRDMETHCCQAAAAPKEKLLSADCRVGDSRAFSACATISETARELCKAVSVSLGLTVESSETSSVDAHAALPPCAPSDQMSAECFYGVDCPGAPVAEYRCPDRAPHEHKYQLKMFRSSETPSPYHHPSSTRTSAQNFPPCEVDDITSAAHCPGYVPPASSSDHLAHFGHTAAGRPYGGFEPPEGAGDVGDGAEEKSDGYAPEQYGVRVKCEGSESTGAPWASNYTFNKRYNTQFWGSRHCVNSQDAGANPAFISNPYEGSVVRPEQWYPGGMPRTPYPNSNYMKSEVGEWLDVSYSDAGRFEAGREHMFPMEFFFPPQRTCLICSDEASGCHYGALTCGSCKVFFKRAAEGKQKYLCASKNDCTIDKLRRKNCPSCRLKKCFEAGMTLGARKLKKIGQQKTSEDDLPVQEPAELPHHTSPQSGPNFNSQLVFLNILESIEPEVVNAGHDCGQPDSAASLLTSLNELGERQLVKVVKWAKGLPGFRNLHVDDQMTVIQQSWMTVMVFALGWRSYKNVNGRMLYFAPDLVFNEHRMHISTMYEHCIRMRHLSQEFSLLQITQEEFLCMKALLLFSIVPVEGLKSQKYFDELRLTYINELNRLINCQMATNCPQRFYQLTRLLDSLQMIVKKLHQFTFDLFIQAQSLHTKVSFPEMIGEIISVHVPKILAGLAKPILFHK
Procedure: To support interpretation of the biological effects observed in the FSTRA studies, in vitro RGAs using medaka Esr1 (mEsr1) and medaka ARβ (mARβ) were performed for the 16 test chemicals. In the present study, Esr1 and ARβ, which are ancestral subtypes among Esrs and ARs in Japanese medaka, were selected based on the phylogenetical analyses of Esr and AR with each receptor RGAs (Ogino et al., [2016], [2018]; Tohyama et al., [2015]).
The mARβ RGA in which the agonist and the antagonist assays were performed as same as the mEsr1 RGA was carried out according to the methods previously reported by Lange et al. ([2015]). For the assays, human liver cancer cell line, HepG2, was used as the host cells, and mARβ/pcDNA3.1, MMTV‐Luc, and pRL‐TK‐Rlu were used as mARβ expression vector, reporter vector, and internal control vector, respectively. Other materials and methods, for example, operating procedure, reagents, and incubation conditions, were almost the same as the mEsr1 RGA previously described beside that 11KT (Sigma‐Aldrich, purity 99.0%), a main AR ligand in fish, was competitively spiked at 50 nM into the test medium with test chemicals in antagonist assay. In the agonist and the antagonist assays, 11KT and 2‐hydroxyflutamide (2HFLT; Sigma‐Aldrich, purity 98.5%) were used as positive controls, respectively.
Effect concentrations, that is, EC50 (a half maximal effective concentration) in the agonist assay and IC50 (a half maximal inhibitory concentration) in the antagonist assay, were estimated by nonlinear curve fitting (e.g., three parameters logistic regression curve) using GraphPad Prism (GraphPad Software Inc., La Jolla, CA, USA).

Question: Which results are given for `CC(C)C(=O)Nc1ccc([N+](=O)[O-])c(C(F)(F)F)c1` [FLT, Flutamide]?
Answer: Fertility rate (%) ([1]; measured conc. 119 μg/L): 94%; Mortality (%) Female ([1]; measured conc. 119 μg/L): 0%; Mortality (%) Male ([1]; measured conc. 119 μg/L): 0%; Number of fertilized eggs ([1]; measured conc. 119 μg/L): 25; Number of total eggs ([1]; measured conc. 119 μg/L): 26 ± 2.3 /female/day; SSC Female ([1]; measured conc. 119 μg/L): 0 ± 0; SSC Male ([1]; measured conc. 119 μg/L): 86 ± 18; VTG (ng/mg of liver) Female ([1]; measured conc. 119 μg/L): 908 ± 255 ng/mg of liver; VTG (ng/mg of liver) Male ([1]; measured conc. 119 μg/L): 47.9 ± 41.8 ng/mg of liver; GSI Female ([1]; measured conc. 119 μg/L): 10.1%; GSI Male ([1]; measured conc. 119 μg/L): 1.10%; HSI Female ([1]; measured conc. 119 μg/L): 4.2%; HSI Male ([1]; measured conc. 119 μg/L): 2.0%; Length Female ([1]; measured conc. 119 μg/L): 34.2 mm; Length Male ([1]; measured conc. 119 μg/L): 35.6 mm; Weight Female ([1]; measured conc. 119 μg/L): 426 mg; Weight Male ([1]; measured conc. 119 μg/L): 445 mg; Fertility rate (%) ([1]; measured conc. 248 μg/L): 94%; Mortality (%) Female ([1]; measured conc. 248 μg/L): 0%; Mortality (%) Male ([1]; measured conc. 248 μg/L): 0%; Number of fertilized eggs ([1]; measured conc. 248 μg/L): 26; Number of total eggs ([1]; measured conc. 248 μg/L): 28 ± 3.1 /female/day; SSC Female ([1]; measured conc. 248 μg/L): 0 ± 0; SSC Male ([1]; measured conc. 248 μg/L): 82 ± 15; VTG (ng/mg of liver) Female ([1]; measured conc. 248 μg/L): 970 ± 200 ng/mg of liver; VTG (ng/mg of liver) Male ([1]; measured conc. 248 μg/L): 35.8 ± 41.5 ng/mg of liver; GSI Female ([1]; measured conc. 248 μg/L): 10.9%; GSI Male ([1]; measured conc. 248 μg/L): 1.10%; HSI Female ([1]; measured conc. 248 μg/L): 4.6%; HSI Male ([1]; measured conc. 248 μg/L): 2.1%; Length Female ([1]; measured conc. 248 μg/L): 33.7 mm; Length Male ([1]; measured conc. 248 μg/L): 35.0 mm; Weight Female ([1]; measured conc. 248 μg/L): 428 mg; Weight Male ([1]; measured conc. 248 μg/L): 394 mg; Fertility rate (%) ([1]; measured conc. 497 μg/L): 96%; Mortality (%) Female ([1]; measured conc. 497 μg/L): 0%; Mortality (%) Male ([1]; measured conc. 497 μg/L): 0%; Number of fertilized eggs ([1]; measured conc. 497 μg/L): 27; Number of total eggs ([1]; measured conc. 497 μg/L): 28 ± 3.0 /female/day; SSC Female ([1]; measured conc. 497 μg/L): 0 ± 0; SSC Male ([1]; measured conc. 497 μg/L): 82 ± 16; VTG (ng/mg of liver) Female ([1]; measured conc. 497 μg/L): 812 ± 159 ng/mg of liver; VTG (ng/mg of liver) Male ([1]; measured conc. 497 μg/L): 38.7 ± 44.8 ng/mg of liver; GSI Female ([1]; measured conc. 497 μg/L): 10.3%; GSI Male ([1]; measured conc. 497 μg/L): 1.20%; HSI Female ([1]; measured conc. 497 μg/L): 4.8%; HSI Male ([1]; measured conc. 497 μg/L): 1.9%; Length Female ([1]; measured conc. 497 μg/L): 34.3 mm; Length Male ([1]; measured conc. 497 μg/L): 35.9 mm; Weight Female ([1]; measured conc. 497 μg/L): 470 mg; Weight Male ([1]; measured conc. 497 μg/L): 429 mg; Fertility rate (%) ([1]; measured conc. 925 μg/L): 93%; Mortality (%) Female ([1]; measured conc. 925 μg/L): 0%; Mortality (%) Male ([1]; measured conc. 925 μg/L): 0%; Number of fertilized eggs ([1]; measured conc. 925 μg/L): 27; Number of total eggs ([1]; measured conc. 925 μg/L): 29 ± 3.1 /female/day; SSC Female ([1]; measured conc. 925 μg/L): 0 ± 0; SSC Male ([1]; measured conc. 925 μg/L): 93 ± 16; VTG (ng/mg of liver) Female ([1]; measured conc. 925 μg/L): 830 ± 131 ng/mg of liver; VTG (ng/mg of liver) Male ([1]; measured conc. 925 μg/L): 50.8 ± 53.8 ng/mg of liver; GSI Female ([1]; measured conc. 925 μg/L): 11.5%; GSI Male ([1]; measured conc. 925 μg/L): 1.10%; HSI Female ([1]; measured conc. 925 μg/L): 4.5%; HSI Male ([1]; measured conc. 925 μg/L): 2.0%; Length Female ([1]; measured conc. 925 μg/L): 34.2 mm; Length Male ([1]; measured conc. 925 μg/L): 35.8 mm; Weight Female ([1]; measured conc. 925 μg/L): 453 mg; Weight Male ([1]; measured conc. 925 μg/L): 416 mg; effect on fecundity (number of total eggs), in words ([1]; within the test concentrations, 21-day exposure): No effect; concentration that significantly reduced the number of nuptial tubercles in males [2]: 938.6 µg/L; mARβ antagonist activity (in words) [3]: inhibited
